Laboratory results taken from patent US9295672B2, “Optically active pyrazolylaminoquinazoline, and pharmaceutical compositions and methods of use thereof” (Ambit Biosciences Corp., priority 2010, dated 2016).

Columns and labels:
[1] = cynomolgus monkey, in vivo
[2] = target: human adenosine A3 receptor (Homo sapiens (Human), UniProt P0DMS8); assay: Adenosine A3 receptor radioligand binding assay ([125I] AB-MECA)
Protocol: Incubations of a range of concentration of each compound were carried out in duplicates for 1 h at 25° C. in 25 mM HEPES, pH 7.4, 5 mM MgCl2, 1 mM CaCl2, 0.1% BSA, in the presence of 0.5 nM [^125I] AB-MECA. Non-specific binding was determined in the presence of 1 μM IB-MECA.

[3] = Solubility tests of the ketone substrate in solvents; assay type: physicochemical; details: 20 ° C.
Protocol: Solubility tests were conducted by adding (4-fluorophenyl)(4-(5-methyl-4H-pyrazol-3-ylamino)quinazolin-2-yl)methanone in small portions to a number of solvents until a suspended solid persisted. A number of solvents were selected for this study based on their suitability as co-solvents for the reaction.

[4] = Solubility tests of ketone, alcohol and their mixture in IPA/DMSO/water at 70° C.; assay type: physicochemical; details: 1.113 g of material at 70° C., IPA 4 mL, Water 0.5 mL
Protocol: The aim of these experiments was to find the minimum amount of DMSO necessary to dissolve reagents and create homogeneous reaction mixture. One tube contained starting material, the second one a mixture of starting material and product (1/1) to simulate situation when reaction is half complete and the third tube contained product. Experiments were started in 5 mL of IPA/DMSO/water (8/1/1), where none of the mixtures was soluble at 70° C. DMSO was then added dropwise until full solubility could be reached. […] At these conditions, starting material was still partially undissolved. This experiment was used to determine the necessary amounts of DMSO to create a homogeneous reaction mixture (upon keeping the original quantities of IPA and water).

[5] = target: phosphodiesterase PDE4; assay: Inhibition of phosphodiesterase PDE4; assay type: biochemical; details: human U937 cells; read-out: IC50 against phosphodiesterase PDE4
Protocol: Human U937 cells were used in this assay. The final DMSO concentration in the assay was about 1%. The assay was pre-incubated at 25° C. for 15 min and then incubated at 25° C. for 20 min in an incubation buffer (50 mM Tris-HCl, pH 7.5, 5 mM MgCl2). The assay was quantitated by measuring the amount of [^3H]adenosine.

Sequence of human adenosine A3 receptor (P0DMS8 whole entry): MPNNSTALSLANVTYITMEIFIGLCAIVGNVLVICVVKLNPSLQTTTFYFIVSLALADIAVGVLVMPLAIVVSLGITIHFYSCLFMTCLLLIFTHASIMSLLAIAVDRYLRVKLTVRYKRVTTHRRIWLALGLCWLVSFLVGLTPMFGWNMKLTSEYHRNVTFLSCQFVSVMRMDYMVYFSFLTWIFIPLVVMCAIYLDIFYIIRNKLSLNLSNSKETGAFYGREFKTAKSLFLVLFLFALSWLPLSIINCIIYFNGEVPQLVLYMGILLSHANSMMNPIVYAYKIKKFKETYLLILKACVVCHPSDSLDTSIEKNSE

SMILES	Hill Coefficient [2]	Result (solubility test) ([4]; DMSO 0.5 mL)	Result (solubility test) ([4]; DMSO 5.5 mL)	Result (solubility test) ([4]; DMSO 7.5 mL)	further results
Cc1cc(Nc2nc([C@@H](O)c3ccc(F)cc3)nc3ccccc23)n[nH]1 [S-isomer]	0.811				proportion of both enantiomers in plasma ([1]; po): almost equal proportions
CC1=NN=C(Nc2nc(C(=O)c3ccc(F)cc3)nc3ccccc23)C1 [(4-fluorophenyl)(4-(5-methyl-4H-pyrazol-3-ylamino)quinazolin-2-yl)methanone]					Solubility ([3]; solvent DMSO): 12000 to 149000 µg/mL; Solubility ([3]; solvent EtOAc): <6000 µg/mL; Solubility ([3]; solvent IPA-H2O (9:1)): <7000 µg/mL; Solubility ([3]; solvent PhMe): <9000 µg/mL; Solubility ([3]; solvent THF): <17000 µg/mL
Cc1cc(Nc2nc(C(=O)c3ccc(F)cc3)nc3ccccc23)n[nH]1 [Ketone]		Not dissolved	Not dissolved	Not dissolved	
Cc1cc(Nc2nc([C@H](O)c3ccc(F)cc3)nc3ccccc23)n[nH]1 [R-isomer]	1.14				share of the Cmax and AUC values determined for the racemic compound ([1]; male): over 85%
CCO [Alcohol]		Not dissolved	Dissolved	Dissolved	
Cc1cc(Nc2nc(C(O)c3ccc(F)cc3)nc3ccccc23)n[nH]1 (racemic) [Racemate]					IC50 [5]: 2530 nM
